Laboratory results taken from patent US7183061B2, “Method of expressing Heliothis ecdysone receptor fusion protein” (Syngenta Limited, priority 1996, dated 2007).

Columns and labels:
HEcR with αRXR = assay: Native HEcR reporter gene expression in HEK293 cells co-transfected with αRXR; format: cell-based, Heliothis virescens; details: αRXR co-transfected along with effector and reporter
Description: A third effector construct was made with the 5′ end sequences of pSK16.1 by PCR. The PCR approach involved PCR amplifying the 5′ end sequences using a 5′ oligonucleotide containing a HindIII restriction cloning site, the Kozak consensus sequence followed by nucleotide sequence encoding for a Methionine start and two Arginines to be added to the 5′ end of the amplified fragment: (16H3K 5′ […] 3′; SEQ ID NO: 28), the 3′ oligonucleotide used was HecrNdeI. The resulting fragment was restriction enzyme digested, gel purified and subcloned with an NdeI/NotI 19R fragment into pcDNA3 NdeI/NotI vector. The plasmid was named pcDNA3H3 KHEcR.
The reporter plasmid to be co-transfected with the expression vector contained 4 copies of the Hsp27 ecdysone response element (Riddihough and Pelham, 1987) fused to β-globin promoter and the β-Galactosidase gene. The tandem repeats of the ecdysone response element were synthesised as two complementary oligonucleotides which when annealed produced a double stranded DNA molecule flanked by an SpeI site at the 5′ end and a ClaI site at the 3′ end:
The resulting 135 bp DNA fragment was ligated to the vector pSWBGAL SpeI/ClaI resulting in pSWREcR4 (FIG. 8). The co-transfection of the two plasmids should result in B-galactosidase activity in the presence of ligand. […]

[1] = molecular target: T1, glucocorticoid/Drosophila ecdysone chimeric receptor (UniProt P04150+P34021); assay: Maize protoplast GUS reporter assay with pMF6GREcRS and p221.9GRE6; format: cell-based; details: maize protoplasts, reporter plus effector
T1 construct: expressed in transfected cells; host or cells: maize suspension-culture protoplasts
T1 sequence (P04150+P34021 with tags, fused parts or gaps): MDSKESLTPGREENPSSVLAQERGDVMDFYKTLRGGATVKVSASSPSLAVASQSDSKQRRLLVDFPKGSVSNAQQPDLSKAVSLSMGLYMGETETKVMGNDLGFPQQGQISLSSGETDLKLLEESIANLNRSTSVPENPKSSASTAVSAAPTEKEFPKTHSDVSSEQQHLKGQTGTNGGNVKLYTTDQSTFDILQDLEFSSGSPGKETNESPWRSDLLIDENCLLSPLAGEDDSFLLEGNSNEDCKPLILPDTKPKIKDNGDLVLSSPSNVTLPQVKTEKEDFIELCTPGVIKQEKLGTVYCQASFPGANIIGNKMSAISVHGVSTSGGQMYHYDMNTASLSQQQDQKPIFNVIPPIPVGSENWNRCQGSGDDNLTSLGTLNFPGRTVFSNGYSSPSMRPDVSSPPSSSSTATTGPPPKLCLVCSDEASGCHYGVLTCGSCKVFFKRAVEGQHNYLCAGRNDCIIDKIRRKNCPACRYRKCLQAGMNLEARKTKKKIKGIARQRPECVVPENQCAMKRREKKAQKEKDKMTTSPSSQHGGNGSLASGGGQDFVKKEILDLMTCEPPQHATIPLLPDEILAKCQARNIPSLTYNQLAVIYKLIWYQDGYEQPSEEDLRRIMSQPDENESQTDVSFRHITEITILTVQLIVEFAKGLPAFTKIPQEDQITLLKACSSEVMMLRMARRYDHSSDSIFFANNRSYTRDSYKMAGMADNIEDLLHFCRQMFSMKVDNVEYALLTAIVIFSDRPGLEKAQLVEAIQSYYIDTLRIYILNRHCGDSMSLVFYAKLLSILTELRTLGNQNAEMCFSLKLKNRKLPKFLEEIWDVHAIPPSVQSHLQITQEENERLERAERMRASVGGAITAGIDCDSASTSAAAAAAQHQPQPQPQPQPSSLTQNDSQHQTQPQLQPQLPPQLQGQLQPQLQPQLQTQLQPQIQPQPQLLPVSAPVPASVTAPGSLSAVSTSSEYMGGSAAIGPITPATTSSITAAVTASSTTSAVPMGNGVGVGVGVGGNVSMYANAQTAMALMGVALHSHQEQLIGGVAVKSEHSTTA
Description: Protoplasts were isolated from a maize suspension culture derived from BE70×A188 embryogenic callus material, which was maintained by subculturing twice weekly in MS0.5mod. (MS medium supplemented with 3% sucrose, 690 mg/l proline, 1 g/l myo-inositol, 0.2 g/l casein acid hydrolysate, 0.5 mg/l 2,4-D, pH 5.6). Cells from suspensions two days post subculture were digested in enzyme mixture (2.0% Cellulase RS, 0.2% Pectolyase Y23, 0.5 M Mannitol, 5 mM CaCl2.2H2O, 0.5% MES, pH 5.6, ˜660 mmol/kg) using ˜10 ml/g cells, incubating at 25° C., dim light, rotating gently for ˜2 hours. The digestion mixture was sieved sequentially through 250 μm and 38 μm sieves, and the filtrate centrifuged at 700 rpm for 3.5 minutes, discarding the supernatant. The protoplasts were resuspended in wash buffer (0.358 M KCl, 1.0 mM NH4NO3, 5.0 mM CaCl2.2H2O, 0.5 mM KH2PO4, pH 4.8, ˜670 mmol/kg) and pelleted as before. This washing step was repeated. The pellet was resuspended in wash buffer and the protoplasts were counted. Transformation was achieved using a Polyethylene glycol method based on Negrutiu et al. Protoplasts were resuspended at 2×10^6/ml in MaMg medium (0.4 M Mannitol, 15 mM MgCl2, 0.1% MES, pH 5.6, ˜450 mmol/kg) aliquotting 0.5 ml/treatment (i.e. 1×10^6 protoplasts/treatment). Samples were heat shocked at 45° C. for 5 minutes then cooled to room temperature. 10 μg each of p221.9GRE6 and pMF6HR1PAT (GR) (1 mg/ml)/treatment were added and mixed in gently, followed by immediate addition of 0.5 ml warm (˜45° C.) PEG solution (40% PEG 3,350 MW in 0.4 M Mannitol, 0.1 M Ca(NO3)2, pH 8.0), which was mixed in thoroughly but gently. Treatments were incubated at room temperature for 20–25 minutes, then 5 ml 0.292 M KCl (pH 5.6, ˜530 mmol/kg) was added step-wise, 1 ml at a time, with mixing. The treatments were incubated for a further 10–15 minutes prior to pelleting the protoplasts by centrifuging as before. […] Protein concentrations of tissue homogenates were determined by the Bio-Rad protein assay (Bradford, 1976). […]

SMILES | induction of reporter activity compared to the untreated cells (HEcR with αRXR) | marker gene activity ([1]; 100 μM) | chemical induced reporter gene activity / induced levels of expression ([1]; concentration not given)
CC(C)CC[C@@H](O)[C@](C)(O)[C@H]1CC[C@@]2(O)C3=CC(=O)[C@]4(O)C[C@@H](O)[C@@H](O)C[C@]4(C)[C@H]3[C@H](O)C[C@]12C [Muristerone A] | 9 fold | significant elevation of marker gene activity | 
CCc1ccc(C(=O)NN(C(=O)c2cc(C)cc(C)c2)C(C)(C)C)cc1 [RH5992, 3,5-dimethylbenzoic acid 1-1(1,1-dimethylethyl)-2(4-ethylbenzoyl)hydrazide] | 9 fold |  | no chemical induced reporter gene activity
